Experimental data from patent US20260262643A1, “HERBICIDAL BENZOXAZINES” (FMC CORPORATION, priority 2022, published 2026).

What was measured:
[1] = test system: blackgrass; experiment: Test A preemergence; format: in vivo, Alopecurus myosuroides; settings: 1000 g ai/ha, 0 to 100 scale (0 no effect, 100 complete control), 10 days
Procedure, shortened: (§1)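 Seeds in loam–sand blend received a directed preemergence soil spray of compound in non-phytotoxic solvent with surfactant; postemergence plants (2–10 cm, one- to two-leaf stage) were sprayed with the same formulation. After 10 days in greenhouse, injury was rated visually versus untreated controls, 0 (no effect) to 100 (complete control).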

[2] = test system: foxtail, giant; experiment: Test A preemergence; format: in vivo, Setaria faberi; settings: 1000 g ai/ha, 0 to 100 scale (0 no effect, 100 complete control), 10 days
Procedure, shortened: as §1

[3] = test system: goosegrass; experiment: Test A preemergence; format: in vivo, Eleusine indica; settings: 1000 g ai/ha, 0 to 100 scale (0 no effect, 100 complete control), 10 days
Procedure, shortened: as §1

[4] = test system: kochia; experiment: Test A preemergence; format: in vivo, Bassia scoparia; settings: 1000 g ai/ha, 0 to 100 scale (0 no effect, 100 complete control), 10 days
Procedure, shortened: as §1

[5] = test system: pigweed, palmer; experiment: Test A preemergence; format: in vivo, Amaranthus palmeri; settings: 1000 g ai/ha, 0 to 100 scale (0 no effect, 100 complete control), 10 days
Procedure, shortened: as §1

[6] = test system: ragweed; experiment: Test A preemergence; format: in vivo, Ambrosia artemisiifolia; settings: 1000 g ai/ha, 0 to 100 scale (0 no effect, 100 complete control), 10 days
Procedure, shortened: as §1

[7] = test system: ryegrass, Italian; experiment: Test A preemergence; format: in vivo, Lolium multiflorum; settings: 1000 g ai/ha, 0 to 100 scale (0 no effect, 100 complete control), 10 days
Procedure, shortened: as §1

[8] = test system: blackgrass; experiment: Test A postemergence; format: in vivo, Alopecurus myosuroides; settings: 1000 g ai/ha, Postemergence, 0 to 100 scale
Procedure, shortened: as §1

[9] = test system: foxtail, giant; experiment: Test A postemergence; format: in vivo, Setaria faberi; settings: 1000 g ai/ha, Postemergence, 0 to 100 scale
Procedure, shortened: as §1

[10] = test system: goosegrass; experiment: Test A postemergence; format: in vivo, Eleusine indica; settings: 1000 g ai/ha, Postemergence, 0 to 100 scale
Procedure, shortened: as §1

[11] = test system: kochia; experiment: Test A postemergence; format: in vivo, Bassia scoparia; settings: 1000 g ai/ha, Postemergence, 0 to 100 scale
Procedure, shortened: as §1

[12] = test system: pigweed, palmer; experiment: Test A postemergence; format: in vivo, Amaranthus palmeri; settings: 1000 g ai/ha, Postemergence, 0 to 100 scale
Procedure, shortened: as §1

[13] = test system: ragweed; experiment: Test A postemergence; format: in vivo, Ambrosia artemisiifolia; settings: 1000 g ai/ha, Postemergence, 0 to 100 scale
Procedure, shortened: as §1

[14] = test system: ryegrass, Italian; experiment: Test A postemergence; format: in vivo, Lolium multiflorum; settings: 1000 g ai/ha, Postemergence, 0 to 100 scale
Procedure, shortened: as §1

[15] = test system: galium; experiment: Test A postemergence; format: in vivo, Galium aparine; settings: 1000 g ai/ha, Postemergence, 0 to 100 scale
Procedure, shortened: as §1

[16] = test system: horseweed; experiment: Test A postemergence; format: in vivo, Erigeron canadensis; settings: 1000 g ai/ha, Postemergence, 0 to 100 scale
Procedure, shortened: as §1

[17] = test system: barnyardgrass; experiment: Test B flooded paddy test; format: in vivo, Echinochloa crus-galli; settings: 250 g ai/ha, Flood, 13 days, 0 to 100 scale (0 no effect, 100 complete control)
Protocol: (§2) Plant species in the flooded paddy test selected from barnyardgrass (Echinochloa crus-galli), ducksalad (Heteranthera limosa), rice (Oryza sativa), and sedge, umbrella (small-flower umbrella sedge, Cyperus difformis) were grown to the 2-leaf stage for testing. At time of treatment, test pots were flooded to 3 cm above the soil surface, treated by application of test compounds directly to the paddy water, and then maintained at that water depth for the duration of the test. Treated plants and controls were maintained in a greenhouse for 13 days, after which time all species were compared to controls and visually evaluated. Plant response ratings, summarized in Table B, are based on a scale of 0 to 100 where 0 is no effect and 100 is complete control. A dash (-) response means no test result.

[18] = test system: ducksalad; experiment: Test B flooded paddy test; format: in vivo, Heteranthera limosa; settings: 250 g ai/ha, Flood, 13 days, 0 to 100 scale (0 no effect, 100 complete control)
Protocol: as §2

[19] = test system: rice; experiment: Test B flooded paddy test; format: in vivo, Oryza sativa; settings: 250 g ai/ha, Flood, 13 days, 0 to 100 scale (0 no effect, 100 complete control)
Protocol: as §2

[20] = test system: sedge, umbrella; experiment: Test B flooded paddy test; format: in vivo, Cyperus difformis; settings: 250 g ai/ha, Flood, 13 days, 0 to 100 scale (0 no effect, 100 complete control)
Protocol: as §2

Compound	Plant response rating, Blackgrass [1]	Plant response rating, Foxtail, Giant [2]	Plant response rating, Goosegrass [3]	Plant response rating, Kochia [4]	Plant response rating, Pigweed, Palmer [5]	Plant response rating, Ragweed [6]	Plant response rating, Ryegrass, Italian [7]	Plant response rating, Blackgrass [8]	Plant response rating, Foxtail, Giant [9]	Plant response rating, Goosegrass [10]	Plant response rating, Kochia [11]	Plant response rating, Pigweed, Palmer [12]	Plant response rating, Ragweed [13]	Plant response rating, Ryegrass, Italian [14]	Plant response rating, Galium [15]	Plant response rating, Horseweed [16]	Plant response rating, Barnyardgrass [17]	Plant response rating, Ducksalad [18]	Plant response rating, Rice [19]	Plant response rating, Sedge, Umbrella [20]	further results
C[C@H]1CN(C(=O)c2cccc(-c3cnn(C)c3)c2)c2cccc(Cl)c2O1 [Compound 119, [(2S)-8-Chloro-2,3-dihydro-2-methyl-4H-1,4-benzoxazin-4-yl][3-(1-methyl-1H-pyrazol-4-yl)phenyl]methanone]																					pest or weed control at 1000 g/ha ([1]; Alopecurus myosuroides, pre-emergence, 240 h, read-out: Plant response rating, Blackgrass): 70%; pest or weed control at 1000 g/ha ([2]; Setaria faberi, pre-emergence, 240 h, read-out: Plant response rating, Foxtail, Giant): 100%; pest or weed control at 1000 g/ha ([3]; Eleusine indica, pre-emergence, 240 h, read-out: Plant response rating, Goosegrass): 90%; pest or weed control at 1000 g/ha ([4]; Bassia scoparia, pre-emergence, 240 h, read-out: Plant response rating, Kochia): 10%; pest or weed control at 1000 g/ha ([5]; Amaranthus palmeri, pre-emergence, 240 h, read-out: Plant response rating, Pigweed, Palmer): 90%; pest or weed control at 1000 g/ha ([6]; Ambrosia artemisiifolia, pre-emergence, 240 h, read-out: Plant response rating, Ragweed): 90%; pest or weed control at 1000 g/ha ([7]; Lolium multiflorum, pre-emergence, 240 h, read-out: Plant response rating, Ryegrass, Italian): 50%; pest or weed control at 1000 g/ha ([8]; Alopecurus myosuroides, post-emergence, 240 h, read-out: Plant response rating, Blackgrass): 70%; pest or weed control at 1000 g/ha ([9]; Setaria faberi, post-emergence, 240 h, read-out: Plant response rating, Foxtail, Giant): 90%; pest or weed control at 1000 g/ha ([10]; Eleusine indica, post-emergence, 240 h, read-out: Plant response rating, Goosegrass): 70%; pest or weed control at 1000 g/ha ([11]; Bassia scoparia, post-emergence, 240 h, read-out: Plant response rating, Kochia): 90%; pest or weed control at 1000 g/ha ([12]; Amaranthus palmeri, post-emergence, 240 h, read-out: Plant response rating, Pigweed, Palmer): 80%; pest or weed control at 1000 g/ha ([13]; Ambrosia artemisiifolia, post-emergence, 240 h, read-out: Plant response rating, Ragweed): 70%; pest or weed control at 1000 g/ha ([14]; Lolium multiflorum, post-emergence, 240 h, read-out: Plant response rating, Ryegrass, Italian): 20%; pest or weed control at 1000 g/ha ([15]; Galium, post-emergence, 240 h, read-out: Plant response rating, Galium): 90%; pest or weed control at 1000 g/ha ([16]; Erigeron canadensis, post-emergence, 240 h, read-out: Plant response rating, Horseweed): 0%; pest or weed control at 250 g/ha ([17]; Echinochloa crus-galli, 312 h, read-out: Plant response rating, Barnyardgrass): 0%; pest or weed control at 250 g/ha ([18]; Heteranthera limosa, 312 h, read-out: Plant response rating, Ducksalad): 0%; plant injury at 250 g/ha ([19]; Oryza sativa, 312 h, read-out: Plant response rating, Rice): 0%; pest or weed control at 250 g/ha ([20]; Cyperus difformis, 312 h, read-out: Plant response rating, Sedge, Umbrella): 0%
O=C(c1ccnc(-n2cncn2)c1)N1CC(C(F)(F)F)Oc2c(Cl)cccc21 (stereo not drawn) [Compound 34]	80	100	100	90	100	20	90	70	100	50	100	80	50	90	100	0	0	0	0	0	
Cc1ccc(-n2cncn2)cc1C(=O)N1CC(C)Oc2c(Cl)cccc21 (stereo not drawn) [Compound 33]	100	100	100	70	100	100	100	90	100	90	70	100	80	100	100	30	30	30	0	65	
